Assay results published in the CheMixHub drug solubility set.

Assay: xn = mol fraction of the nth substance listed, in the solute-free solvent

Cc1c(Br)cccc1C(=O)O + CN(C)C=O + CC#N
solubility (g/100 g solution)
Details	x2 = 0.106	x2 = 0.224	x2 = 0.355	x2 = 0.502	x2 = 0.668	x2 = 0.858
278.15 K	6.4	10.6	14.2	17.6	20.8	23.6
283.15 K	7.69	12.4	16.8	20.7	24.4	25.8
288.15 K	8.95	14.9	19.8	24.3	28.2	32
293.15 K	11	17.3	23	28	32.5	36.6
298.15 K	12.6	20.2	26.5	32.1	37.1	41.6
303.15 K	14.5	23.3	30.5	36.5	42.1	47.1
308.15 K	17.1	26.8	34.4	41.3	47.2	52.7
313.15 K	19.5	30.5	38.9	46.3	52.7	58.5
318.15 K	22.6	34.5	43.6	51.4	58.1	64.3
323.15 K	26	38.8	48.6	56.7	63.8	70.3
328.15 K	29.2	43.1	53.5	62	69.3	76

CC(=O)N1CCN(c2ccc(OCC3COC(Cn4ccnc4)(c4ccc(Cl)cc4Cl)O3)cc2)CC1 (stereo not drawn) + CC#N + O
solubility (g/100 g solution)
Details	x2 = 0.04651	x2 = 0.0989	x2 = 0.1583	x2 = 0.2264	x2 = 0.3051	x2 = 0.397	x2 = 0.506	x2 = 0.6372	x2 = 0.798
293.15 K	0.0181	0.108	0.587	2.22	5.12	9.21	11.9	10	4.67
298.15 K	0.0214	0.122	0.681	2.63	6.07	10.5	13	11.2	5.65
303.15 K	0.024	0.137	0.794	2.95	6.89	11.7	14.2	12.5	6.84
308.15 K	0.0263	0.157	0.888	3.36	7.88	12.9	15.4	13.6	7.71
313.15 K	0.0283	0.177	0.992	3.72	8.81	13.8	16.5	14.9	8.58

CCC(C)n1ncn(-c2ccc(N3CCN(c4ccc(OCC5COC(Cn6cncn6)(c6ccc(Cl)cc6Cl)O5)cc4)CC3)cc2)c1=O (stereo not drawn) + ClCCl + CCCCO
solubility (g/100 g solution)
Details	x2 = 0.08928	x2 = 0.1807	x2 = 0.2744	x2 = 0.3704	x2 = 0.4687	x2 = 0.5696	x2 = 0.6731	x2 = 0.7792	x2 = 0.8882
288.15 K	0.0509	0.143	0.594	1.83	4.18	9.32	14.8	19.8	22
293.15 K	0.0634	0.189	0.775	2.27	5.04	10.4	16	20.9	23.1
298.15 K	0.078	0.249	1	2.81	5.97	11.6	17	22.1	24.2
303.15 K	0.0948	0.323	1.28	3.4	7.13	12.8	18.2	23.1	25.3
308.15 K	0.115	0.412	1.64	4.11	8.37	14	19.3	24.2	26.4

Cc1ncc(C[n+]2csc(CCO)c2C)c(N)n1.O=[N+]([O-])[O-] + O + CC(C)=O
solubility (g/100 g solution)
Details	278.15 K	283.15 K	288.15 K	293.15 K	298.15 K	303.15 K	308.15 K	313.15 K
x2 = 0.3	0.0632	0.0724	0.0831	0.0951	0.118	0.138	0.161	0.193
x2 = 0.4	0.169	0.198	0.227	0.252	0.298	0.344	0.393	0.437
x2 = 0.5	0.394	0.441	0.498	0.556	0.639	0.733	0.842	0.951
x2 = 0.6	0.648	0.746	0.87	0.996	1.16	1.37	1.64	2
x2 = 0.7	1.08	1.24	1.45	1.69	1.98	2.3	2.69	3.23
x2 = 0.8	1.55	1.8	2.14	2.53	2.97	3.56	4.14	4.86
x2 = 0.9	1.85	2.17	2.54	3.11	3.62	4.28	5	5.96

Cl.N=C(N)N + CO + CCCO
solubility (g/100 g solution)
Details	278.15 K	283.15 K	288.15 K	293.15 K	298.15 K	303.15 K	308.15 K	313.15 K	318.15 K	323.15 K
x2 = 0.1726	9.26	10.3	11.5	12.6	13.3	14.4	15.6	17	18.2	19.9
x2 = 0.4458	15.1	16.1	17.4	18.8	20.6	22	23.4	25.3	26.3	28.2
x2 = 0.6523	22.2	23.4	24.9	26.3	27.8	29.2	30.7	32.4	34.1	35.6
x2 = 0.8138	28.3	29.7	31.4	33.1	34.5	36.2	37.6	39.5	40.9	42.3
x2 = 0.9441	33.4	35.1	36.8	38.3	40.2	42.1	43.6	45.5	47.1	48.8

CCCCCOC(=O)Nc1nc(=O)n(C2OC(C)C(O)C2O)cc1F (stereo not drawn) + CCOC(C)=O + CCCCCC
solubility (g/100 g solution)
Details	278.15 K	283.15 K	288.15 K	293.15 K	298.15 K	303.15 K	308.15 K	313.15 K	318.15 K	323.15 K
x2 = 0.09988	0.0133	0.0183	0.0254	0.0345	0.0462	0.0616	0.0815	0.107	0.139	0.18
x2 = 0.2008	0.0154	0.0212	0.0286	0.0382	0.0506	0.0664	0.0863	0.111	0.143	0.181
x2 = 0.3	0.0501	0.0621	0.0766	0.0936	0.113	0.137	0.165	0.197	0.233	0.276
x2 = 0.4	0.113	0.134	0.159	0.219	0.187	0.255	0.296	0.341	0.392	0.448
x2 = 0.5003	0.141	0.171	0.207	0.248	0.296	0.351	0.413	0.484	0.565	0.655
x2 = 0.6	0.309	0.384	0.474	0.581	0.706	0.853	1.02	1.22	1.45	1.71
x2 = 0.6998	0.423	0.535	0.67	0.833	1.03	1.26	1.53	1.85	2.22	2.65
x2 = 0.7998	0.53	0.694	0.902	1.16	1.48	1.87	2.34	2.91	3.58	4.39
x2 = 0.8999	0.819	1.09	1.43	1.85	2.38	3.04	3.84	4.8	5.96	7.33

CC(N)C(=O)O (stereo not drawn) + O + CC(C)=O
solubility (g/100 g solution)
Details	x2 = 0.1	x2 = 0.2	x2 = 0.3	x2 = 0.4	x2 = 0.5	x2 = 0.6	x2 = 0.7	x2 = 0.8	x2 = 0.9
283.15 K	0.0237	0.0301	0.047	0.0557	0.0712	0.135	0.382	1.03	3.44
293.15 K	0.0407	0.0463	0.0511	0.0648	0.0791	0.17	0.457	1.34	4.17
303.15 K	0.047	0.053	0.0603	0.0794	0.0969	0.22	0.611	1.73	5.02
313.15 K	0.0547	0.0607	0.0696	0.0949	0.128	0.309	0.794	2.22	6.57
323.15 K	0.0629	0.0786	0.0878	0.138	0.193	0.484	1.14	3.18	8.13

CCC(C)n1ncn(-c2ccc(N3CCN(c4ccc(OCC5COC(Cn6cncn6)(c6ccc(Cl)cc6Cl)O5)cc4)CC3)cc2)c1=O (stereo not drawn) + ClC(Cl)Cl + CO
solubility (g/100 g solution)
Details	x2 = 0.02929	x2 = 0.06358	x2 = 0.1043	x2 = 0.1533	x2 = 0.2136	x2 = 0.2895	x2 = 0.3879	x2 = 0.5207	x2 = 0.7097
288.15 K	0.123	0.229	0.436	0.789	1.79	5.31	16.6	24.9	29.3
293.15 K	0.147	0.272	0.515	0.931	2.3	6.83	18.2	26.3	30.1
298.15 K	0.174	0.318	0.607	1.09	2.88	8.58	19.9	27.7	30.9
303.15 K	0.205	0.373	0.708	1.29	3.66	10.8	21.7	29.1	31.7
308.15 K	0.242	0.434	0.827	1.5	4.54	13.4	23.6	30.4	32.5

c1ccc2[nH]c(-c3cscn3)nc2c1 + CCCO + O
solubility (g/100 g solution)
Details	283.15 K	288.15 K	293.15 K	298.15 K	303.15 K	308.15 K	313.15 K	318.15 K	323.15 K
x2 = 0.03225	0.00325	0.00407	0.00514	0.00634	0.00789	0.00974	0.0118	0.0143	0.0173
x2 = 0.06974	0.0139	0.017	0.021	0.0263	0.0319	0.0383	0.0458	0.0545	0.0646
x2 = 0.1139	0.0334	0.0402	0.0487	0.0585	0.0703	0.0828	0.0976	0.116	0.136
x2 = 0.1666	0.0767	0.09	0.106	0.122	0.142	0.162	0.188	0.212	0.242
x2 = 0.2307	0.141	0.163	0.188	0.216	0.249	0.284	0.321	0.365	0.413
x2 = 0.3103	0.21	0.243	0.282	0.322	0.367	0.415	0.47	0.525	0.592
x2 = 0.4117	0.291	0.331	0.38	0.435	0.497	0.563	0.633	0.707	0.794
x2 = 0.5454	0.37	0.423	0.483	0.545	0.62	0.699	0.785	0.879	0.983
x2 = 0.7297	0.425	0.482	0.553	0.623	0.708	0.79	0.883	0.986	1.1
